Test results from patent US20010011082A1, “Parenteral bisphosphonate composition with improved local tolerance” (priority 2000, published 2001).

Key:
[1] = Local tolerance test: s.c. injection of bisphosphonate solution pH 7.4 with and without chelating agent, swelling score and diameter of subcutaneous lesions at necropsy; conditions: for adverse local reaction at the application sites: additional bivalent cation chelator in bisphosphonate formulation, compared with corresponding formulation without chelator; for severity of subcutaneous findings at necropsy / intensity and duration of local swelling at the injection site: chelating agent in injectable formulations of alendronate or ibandronate; for severity of subcutaneous findings at necropsy: necropsy after 9 days; for intensity and duration of local swelling at the injection site: observed over 9 days
Protocol: (§1) Groups of 3 rats were treated with test formulations containing 1 mg ibandronate/ml physiological saline buffered at pH 7.4. One group of rats received the test formulation without any additional additive, another group received the test solution with 1 mg EDTA/ml as an additive. The back of the rat was shaved one day before treatment. A volume of 0.5 ml each was injected subcutaneously at three different sites of the right part of shaved back. The left side of the back was treated with the corresponding formulation without ibandronate (placebo). Local reactions were assessed by a scoring system for swelling: 0=no reaction, 0.5=barely perceptible swelling, 1=slight swelling, 2=moderate swelling, 3=marked swelling, 4=severe swelling. The animals were observed over 9 days and thereafter necropsied. At necropsy, the diameter of subcutaneous lesions, mainly consisting of reddening or swelling, was measured.
(§2) The same study design as described in example 1 was applied to examine the concentration dependence of the EDTA effect. EDTA was added at concentrations of 0.1, 1.0 and 10 mg/ml.
(§3) DTPA was added at a concentration of 10 mg/ml.
(§4) The same study design as described in example 1 was applied to examine the efficacy of EDTA on local reaction to s.c. injected alendronate. The test formulations contained 3 mg alendronate/ml physiological saline buffered at pH 7.4. EDTA was added at a concentration of 10 mg/ml.

[2] = rat, in vivo, pH 7.4
Protocol: as §1, §2, §3, §4

Compound | efficacy of DTPA as chelating agent on local reaction ([1]; 1 mg ibandronate/ml pH 7.4, DTPA 10 mg/ml, s.c.) | adverse local reaction at the application sites [1] | severity of subcutaneous findings at necropsy ([1]; s.c.) | intensity and duration of local swelling at the injection site ([1]; s.c.) | effect on local adverse reactions at lowest ratio ([1]; 1 mg ibandronate/ml pH 7.4, molar ibandronate to EDTA ratio 1:0.1 (EDTA 0.1 mg/ml)) | local adverse reactions at highest ratio ([1]; 1 mg ibandronate/ml pH 7.4, molar ibandronate to EDTA ratio 1:10 (EDTA 10 mg/ml)) | effect of EDTA on alendronate induced local reaction ([1]; 3 mg alendronate/ml physiological saline pH 7.4, EDTA 10 mg/ml, s.c.) | improving effect of EDTA on local tolerance (dose dependence) [2]
O=C(O)CN(CCN(CC(=O)O)CC(=O)O)CCN(CC(=O)O)CC(=O)O [DTPA, diethylenetriaminepentaacetic acid] | could also be demonstrated | substantially improved | reduces | reduces |  |  |  | 
O=C(O)CN(CCN(CC(=O)O)CC(=O)O)CC(=O)O [EDTA, ethylenediaminetetraacetic acid] |  | substantially improved | reduces | reduces | still some beneficial effect | still not completely abolished | could also be demonstrated | dose-related
